According to patent US12121518B2, “PARP-1 and methods of use thereof” (The Board of Supervisors of Louisiana State University and …, priority 2017, dated 2024):
Like-named read-outs stand apart in the source and are kept apart here.

Key:
[1] = system: bone marrow-derived MDSCs; conditions: co-culture without drug
MDSCs and T cells = experiment: FACS of tumor-infiltrating and spleen immune cells in the MC-38 model; type: in vivo, mouse
Description: Tumors from the different experimental groups were either processed to generate single-cell suspensions or fixed with formalin. Single cell suspensions were stained with a combination of antibodies to CD45, CD11b, Gr1, Ly6C, and Ly6G. CD11b^+ cell population was gated from the live CD45^+ population. (A) Representative FACS dot plot of the experimental groups. (B) Absolute numbers and percentages of CD11b^+Gr1^+ cell populations in tumors of the different groups. (C) Absolute numbers and percentages of CD11b^+Ly6C^+ and CD11b^+Ly6G^+ populations in tumors of the different groups. (D) Absolute numbers and percentages of CD45^+CD3^+ and CD3^+CD8^+ cell populations in tumors of the different groups. […] (F) Percentages of CD45^+CD3^+ and CD3^+CD8^+ cell populations in spleens of the different groups. […] T cell proliferation was assessed by FACS. p≤0.05; **, p≤0.01; ***, p≤0.001.
Flow cytometric characterization of tumor infiltrating immune cells using fluorescence-activated cell sorting (FACS) analysis—Following digestion, tumor homogenates were filtered through a […] cell strainer to obtain a single cell suspension. Cell suspensions were then subjected to red blood cell lysis using ACK buffer for 5 minutes before resuspending in complete media. Cells were treated with anti-CD16/CD32 (BD; 2.4G2) for Fc blocking prior to staining with fluorescently-labeled mouse antibodies specific for CD45 (30-F11), CD3e (500A2) (both from eBioscience, San Diego, CA), Ly6C (AL-21), Ly6G (1A8), Gr1 (RB6-8C5), CD11b (M1/70), CD8 (53-6.7), and PD-1 (PA5-J43) (all from BD Biosciences, San Jose, CA). Single cells were gated by first using forward- and side-scatter doublet discrimination. Immune cells were discriminated from this doublet-excluded population using CD45. Myeloid cells were identified using a CD11b^+gate and MDSC subtypes identified by Gr1 selection and then plotted Ly6G/Ly6C. CD3^+ T-cells were gated from CD45^+ cells. CD4^+ and C8^+ T-cells were identified from CD3^+ gate. The detailed gating strategy is described in FIG. 45.

[2] = system: steroid-resistant leukemia cells; experiment: Steroid-resistant leukemia cells: cell killing and NOTCH levels; type: cell-based; conditions: 4 nM
CD3+ T cells = experiment: Proliferation of CD3/CD28-stimulated T cells in the absence of MDSCs; conditions: 72 h, no MDSCs
perforin = experiment: Perforin immunoblot in CD3/CD28-stimulated spleen CD3+ T cells; type: cell-based; conditions: 3 days
Experimental: CD3^+ T cells were isolated from spleen then stimulated with antibodies to CD3 and CD28 for 3 days. Protein extracts were analyzed by immunoblotting with antibodies to perforin (a marker of T cell function) or GAPDH. Note that the 4 nM concentration increased, while the 1 mM decreased, perforin levels.

[3] = system: AOM/DSS-induced colon tumorigenesis; experiment: AOM/DSS chronic inflammation-driven colon cancer mouse model; type: in vivo; conditions: AOM/DSS-treated WT mice; for colon tumor burden: vs vehicle
Experimental: The drug was administered twice weekly for the duration of the protocol. […] As stated above, the AOM/DSS colon cancer model is driven primarily by chronic inflammation; thus, we next assessed mice sera for inflammatory factors TNF-α, IL-6, and MCP-1, which are highly relevant to human colon carcinogenesis.
Tumor models, assessment of tumor burden and adoptive transfer—For the azoxymethane/Dextran Sulfate Sodium (AOM/DSS)-induced tumorigenesis model, six to eight weeks old WT, PARP-1^+/− or PARP-1^−/− mice received a single dose (10 mg/kg) of AOM, i.p., followed by 4 cycles of 1.25% DSS provided in drinking water. Each cycle consisted of a week of DSS water separated by 2 weeks of regular water. […] At week 22 after the start of the experimental protocol, mice were sacrificed by CO2 asphyxiation. Colons, spleens, and blood were collected for analysis. Colons were opened longitudinally and washed with PBS to assess the tumor burdens using a dissecting microscope. For the APC^Min-mediated model, APC^Min/+, APC^Min/+PARP-1^+/−, or APC^Min/+PARP-1^−/− male mice were sacrificed at 16 weeks of age. […] Sacrificed mice were processed as described above except that the tumor burden was assessed along the whole intestinal track. Tumors were counted and divided in groups lower than 2 mm, 2-4 mm, and tumors bigger than 4 mm in diameter.
Tissue processing, immunohistochemistry, immunofluorescence and cytokines measurement—Some tissues were fixed in buffered formalin (10%), paraffin-embedded, then sectioned. Serial sections were subjected to H&E staining, immunohistochemistry (IHC) or immunofluorescence, as described (33), with antibodies to PCNA (Novusbio, Littleton, CO), COX-2 (Santa Cruz Biotechnology, Santa Cruz, CA), ICAM-1 (Santa Cruz Biotechnology), CD8 (Santa Cruz Biotechnology), or Gr1 (eBioscience, San Diego, USA) as previously described (34). […] Cytokine levels were assessed for TNF-α (ELM-TNFα-1), IL-6 (ELM-IL-6-1), and MCP-1 (ELM-MCP1) by ELISA (all from RayBiotech, Norcross, GA) according to the manufacturer's instructions and recommendations.

allograft breast cancer = conditions: 50 mg/kg daily; cited from earlier work
KOPT-K1 cells = experiment: KOPT-K1 cell viability (Trypan exclusion assay); type: cell-based; conditions: ultra-low doses, 2.5 days
Experimental: (§1) Cell viability was assessed 2.5 days after treatment by Trypan exclusion assay. Statistics are not included.
as §1
The ultimate goal of this therapy is maximal inhibition of PARP to achieve “synthetic lethality” taking advantage of the inability of BRCA-deficient cancer cells to repair DNA. […] This was tested in three different leukemia cell lines.

SMILES: O=C(c1cc(Cc2n[nH]c(=O)c3ccccc23)ccc1F)N1CCN(C(=O)C2CC2)CC1 [olaparib]
- suppressive activity of MDSCs on T-cell proliferation ([1]; 4 nM): significantly reduced
- suppressive activity of MDSCs on T-cell proliferation ([1]; high concentration 5 μM): blocked the function of MDSCs completely
- suppressive activity of MDSCs on T-cell proliferation ([1]; moderate concentration 0.1 μM): blocked the function of MDSCs completely
- CD3+ T cells in tumors (mostly CD8+) (MDSCs and T cells; low dose 0.2 mg/kg): increased
- percentages and numbers of CD11b+/Gr1+ MDSCs in tumors (MDSCs and T cells; low dose 0.2 mg/kg): did not significantly affect
- numbers and percentages of M-MDSCs in tumors (MDSCs and T cells; moderate dose 5 mg/kg): significantly increased
- overall CD3+ T cells in spleens (with concomitant decrease in CD8+) (MDSCs and T cells; moderate dose 5 mg/kg): substantial decrease
- sensitivity of the cells to dexamethasone [2]: completely reversed sensitivity of the cells to dexamethasone
- proliferation of T cells (CD3+ T cells; high concentration 5 μM): significant effects on T-cell proliferation
- proliferation of T cells (CD3+ T cells; low concentration 4 nM): no effect on proliferation of T cells
- proliferation of T cells (CD3+ T cells; moderate concentration 0.1 μM): significant effects on T-cell proliferation
- perforin levels (marker of T cell function) (perforin; 4 nM): increased
- perforin levels (marker of T cell function) (perforin): decreased
- colon tumor burden ([3]; 5 mg/kg i.p. twice weekly): significantly reduced the tumor burden
- colon tumor burden ([3]; 25 mg/kg i.p. twice weekly): significantly reduced the tumor burden
- colitis (colonic mucosa, H&E) ([3]; 5 or 25 mg/kg): notable protection
- effect on anti-PD1 immunotherapy (allograft breast cancer): enhances anti-PD1 immunotherapy
- steroid resistance (viability with dexamethasone) (KOPT-K1 cells): reverse steroid resistance
